The text below walks through data of patent US20230079819A1, “COMPOUNDS AND USES THEREOF” (Foghorn Therapeutics Inc., priority 2019, published 2023).

In experiment [1] the test system is uveal melanoma cell lines (92-1, MP41, MP38, MP46). Description: Growth of uveal melanoma cell lines with compound 67, 3 days, Cell-titer glo. To be noted: 0 to 10 micromolar. The class given is cell-based.
The test system of experiment [2] is uveal melanoma cell lines 92-1 or MP41. Description: Growth inhibition of uveal melanoma cell lines, compound 67 compared with clinical PKC and MEK inhibitors, 3 days, Cell-titer glo. Type of experiment: cell-based. To be noted: vs LXS196 and Selumetinib.
Experiment [3] concerns the target T1, BRM (Homo sapiens, UniProt P51531).
T1 construct: made in house; host or cells: High Five insect cells
The experiment in a line: ATPase catalytic activity of BRM, ADP-Glo in vitro biochemical assay. To be noted: 30 nM BRM, 400 μM ATP, read-out: BRM IP50. For orientation: ADP-Glo first removes unused ATP, then detects ADP through luciferase.

Experiment [4] concerns the target T2, BRG-1 (Homo sapiens, UniProt P51532).
T2 construct: made in house; host or cells: High Five insect cells
Description: ATPase catalytic activity of BRG-1, ADP-Glo in vitro biochemical assay. To be noted: 30 nM BRG-1, 400 μM ATP, read-out: BRG1 IP50.

The subject of experiment [5] is several cancer cell lines. Description: Inhibition of cell proliferation of several cancer cell lines. Type of experiment: cell-based.
Experiment [6] concerns uveal melanoma cell line 92-1. The experiment in a line: Inhibition of cell proliferation of uveal melanoma cell line 92-1. Type of experiment: cell-based.
Experiment [7] concerns uveal melanoma cell line MP41. Description: Inhibition of cell proliferation of uveal melanoma cell line MP41. The class given is cell-based.
For experiment [8], the system named is uveal melanoma cell lines 92-1 or MP41. The experiment in a line: Growth inhibition of uveal melanoma cell lines, Compound A compared with clinical PKC and MEK inhibitors, 3 days, Cell-titer glo. Type of experiment: cell-based. To be noted: vs LXS196 and Selumetinib.
The subject of experiment [9] is parental and PKC-inhibitor refractory uveal melanoma cell lines. Description: Inhibition of cell proliferation of parental and PKC-inhibitor refractory uveal melanoma cell lines. Type of experiment: cell-based.
Experiment [10] deals with MP41 uveal melanoma cells, parental and PKCi-resistant. Description: 7-day growth inhibition assay in parental and PKC inhibitor-resistant MP41 cells. To be noted: 7-day assay. The class given is cell-based.
Where [11] appears, read: 92-1 or MP41, 3 days, 0 to 10 micromolar.

T1 sequence (P51531 whole entry): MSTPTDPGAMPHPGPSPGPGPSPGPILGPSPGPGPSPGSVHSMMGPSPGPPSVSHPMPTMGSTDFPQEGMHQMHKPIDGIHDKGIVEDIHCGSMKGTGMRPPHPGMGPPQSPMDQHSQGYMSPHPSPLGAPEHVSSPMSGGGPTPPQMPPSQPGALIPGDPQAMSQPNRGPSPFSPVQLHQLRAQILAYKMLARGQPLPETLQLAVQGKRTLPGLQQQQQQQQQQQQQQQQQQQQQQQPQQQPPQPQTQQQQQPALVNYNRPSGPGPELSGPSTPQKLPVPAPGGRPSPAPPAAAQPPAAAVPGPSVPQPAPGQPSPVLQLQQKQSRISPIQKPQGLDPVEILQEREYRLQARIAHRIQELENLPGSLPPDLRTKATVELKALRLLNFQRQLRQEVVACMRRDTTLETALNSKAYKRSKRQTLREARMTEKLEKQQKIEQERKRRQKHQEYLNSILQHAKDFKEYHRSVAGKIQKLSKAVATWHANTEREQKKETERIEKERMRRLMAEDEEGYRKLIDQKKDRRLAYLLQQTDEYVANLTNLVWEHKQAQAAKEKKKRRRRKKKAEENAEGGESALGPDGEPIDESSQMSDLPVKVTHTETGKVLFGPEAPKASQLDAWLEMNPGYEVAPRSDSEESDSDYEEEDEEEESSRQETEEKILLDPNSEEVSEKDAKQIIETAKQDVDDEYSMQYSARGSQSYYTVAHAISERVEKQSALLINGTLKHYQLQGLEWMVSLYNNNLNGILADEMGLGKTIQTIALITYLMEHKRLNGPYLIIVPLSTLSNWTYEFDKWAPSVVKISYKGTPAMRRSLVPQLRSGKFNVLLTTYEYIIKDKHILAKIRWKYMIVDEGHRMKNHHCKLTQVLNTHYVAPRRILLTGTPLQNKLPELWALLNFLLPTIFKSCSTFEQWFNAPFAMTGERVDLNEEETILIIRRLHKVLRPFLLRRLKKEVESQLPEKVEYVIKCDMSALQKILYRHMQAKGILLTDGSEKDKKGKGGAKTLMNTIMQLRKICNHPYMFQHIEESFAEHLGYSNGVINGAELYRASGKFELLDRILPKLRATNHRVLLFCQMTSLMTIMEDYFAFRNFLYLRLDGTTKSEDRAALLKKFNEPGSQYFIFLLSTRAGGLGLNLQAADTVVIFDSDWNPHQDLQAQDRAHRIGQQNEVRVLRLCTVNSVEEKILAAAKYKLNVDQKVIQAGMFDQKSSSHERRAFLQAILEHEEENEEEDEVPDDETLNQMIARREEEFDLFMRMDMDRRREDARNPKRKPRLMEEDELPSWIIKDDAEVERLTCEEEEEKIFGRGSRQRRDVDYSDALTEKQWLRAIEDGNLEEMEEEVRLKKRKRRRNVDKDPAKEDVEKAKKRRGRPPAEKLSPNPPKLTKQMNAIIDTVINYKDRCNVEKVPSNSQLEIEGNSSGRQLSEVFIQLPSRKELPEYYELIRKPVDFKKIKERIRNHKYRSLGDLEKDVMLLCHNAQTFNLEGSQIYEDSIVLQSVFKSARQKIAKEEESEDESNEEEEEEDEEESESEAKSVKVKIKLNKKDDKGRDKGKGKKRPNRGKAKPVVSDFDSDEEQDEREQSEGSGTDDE
T2 sequence (P51532 whole entry): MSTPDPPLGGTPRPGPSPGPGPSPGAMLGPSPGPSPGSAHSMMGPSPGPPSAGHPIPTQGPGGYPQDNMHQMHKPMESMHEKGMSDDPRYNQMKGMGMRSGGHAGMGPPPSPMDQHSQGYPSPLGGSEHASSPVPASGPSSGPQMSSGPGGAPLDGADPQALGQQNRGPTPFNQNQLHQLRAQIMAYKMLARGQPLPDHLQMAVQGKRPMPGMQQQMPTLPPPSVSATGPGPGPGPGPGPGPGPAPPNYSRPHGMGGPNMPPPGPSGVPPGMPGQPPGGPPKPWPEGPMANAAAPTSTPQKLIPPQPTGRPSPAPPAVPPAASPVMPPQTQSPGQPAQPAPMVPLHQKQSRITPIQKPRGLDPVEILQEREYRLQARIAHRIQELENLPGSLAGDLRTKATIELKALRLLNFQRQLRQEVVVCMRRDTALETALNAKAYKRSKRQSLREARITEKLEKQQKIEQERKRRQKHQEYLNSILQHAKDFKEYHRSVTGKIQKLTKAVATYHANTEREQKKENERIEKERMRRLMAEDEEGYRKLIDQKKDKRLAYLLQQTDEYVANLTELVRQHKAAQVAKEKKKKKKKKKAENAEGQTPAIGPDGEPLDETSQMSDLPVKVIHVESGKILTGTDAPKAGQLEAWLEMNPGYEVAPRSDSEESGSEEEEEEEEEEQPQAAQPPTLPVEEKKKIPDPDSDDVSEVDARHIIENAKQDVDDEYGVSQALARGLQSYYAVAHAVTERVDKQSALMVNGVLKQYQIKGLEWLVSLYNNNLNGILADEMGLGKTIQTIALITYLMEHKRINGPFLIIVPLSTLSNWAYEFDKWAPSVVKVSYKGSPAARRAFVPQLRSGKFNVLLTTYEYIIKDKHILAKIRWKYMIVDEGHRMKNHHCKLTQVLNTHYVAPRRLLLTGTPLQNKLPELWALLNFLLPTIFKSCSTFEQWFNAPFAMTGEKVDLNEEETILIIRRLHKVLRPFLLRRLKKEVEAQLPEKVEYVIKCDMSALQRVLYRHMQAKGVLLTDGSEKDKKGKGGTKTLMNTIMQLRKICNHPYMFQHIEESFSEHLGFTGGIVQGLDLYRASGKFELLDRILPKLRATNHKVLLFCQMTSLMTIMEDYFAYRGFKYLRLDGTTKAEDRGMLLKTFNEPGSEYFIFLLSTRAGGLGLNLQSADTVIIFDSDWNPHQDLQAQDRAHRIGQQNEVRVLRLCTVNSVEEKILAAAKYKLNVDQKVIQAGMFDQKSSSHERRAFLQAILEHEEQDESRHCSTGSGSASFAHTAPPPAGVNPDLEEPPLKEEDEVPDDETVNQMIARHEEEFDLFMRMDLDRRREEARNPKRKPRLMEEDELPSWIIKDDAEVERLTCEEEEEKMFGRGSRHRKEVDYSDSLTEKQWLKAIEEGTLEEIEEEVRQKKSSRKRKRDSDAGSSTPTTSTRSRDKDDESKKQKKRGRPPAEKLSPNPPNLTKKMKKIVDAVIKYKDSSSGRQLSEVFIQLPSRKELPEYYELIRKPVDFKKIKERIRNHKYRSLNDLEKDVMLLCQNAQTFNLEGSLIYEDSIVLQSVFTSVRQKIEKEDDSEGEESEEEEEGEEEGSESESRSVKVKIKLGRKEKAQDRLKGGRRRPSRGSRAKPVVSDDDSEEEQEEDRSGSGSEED

Regarding `CSCC[C@H](NC(=O)c1ccn(S(C)(=O)=O)c1)C(=O)Nc1nc(-c2cccc(-c3ccncc3)c2)cs1` [Compound 67, (S)-1-(methylsulfonyl)-N-(4-(methylthio)-1-oxo-1-((4-(3-(pyridin-4-yl)phenyl)thiazol-2-yl)amino)butan-2-yl)-1H-pyrrole-3-carboxamide], the “growth inhibition in uveal melanoma cell lines (FIG. 5)” value in experiment [1] is on record as “potent growth inhibition”. In experiment [2] (setting [11]), the “growth inhibition of uveal melanoma cells compared with clinical PKC and MEK inhibitors (FIG. 6A, 6B)” value is given as “more potent effects on growth inhibition”. Also, the “onset of growth inhibition compared with clinical PKC and MEK inhibitors” value in [2] (92-1 or MP41) was “faster onset of growth inhibition”.

For the molecule `C[C@@H]1CN(c2cccc(-c3csc(NC(=O)CNC(=O)c4ncc(C(C)(C)C)s4)n3)n2)C[C@H](C)O1` [Compound 822], the results for the IC50 in experiment [3] and in experiment [4] were greater than 10 nM and greater than 100 nM, respectively.

`C[C@@H]1CN(c2cccc(-c3csc(NC(=O)CNC(=O)c4ncc(C(C)(C)C)o4)n3)c2)C[C@H](C)O1` [Compound 823]: the IC50 in [3] is less than 10 nM; in experiment [4], greater than 10 nM.

Take `COc1cnc(C(=O)NCC(=O)Nc2nc(-c3cccc(N4C[C@@H](C)O[C@@H](C)C4)n3)cs2)o1` [Compound 824]: the IC50 in experiment [3] and in [4] was greater than 100 nM each time.

On to `COC[C@H](NC(=O)c1ncc(C(C)(C)C)o1)C(=O)Nc1nc(-c2cc(F)cc(-c3cnn(C)n3)c2)cs1` [Compound 825], for which the IC50 in experiment [3] was less than 10 nM; in [4], greater than 10 nM.

Regarding `C[C@@H]1CN(c2cccc(-c3csc(NC(=O)CNC(=O)c4ncc(C5(C)COC5)o4)n3)n2)C[C@H](C)O1` [Compound 826], the IC50 in [3] and in experiment [4] was greater than 10 nM each time.

Regarding `C[C@@H]1CN(c2cccc(-c3csc(NC(=O)CNC(=O)c4ncc(C(C)(C)C)o4)n3)n2)C[C@H](C)O1` [Compound 827], the IC50 is less than 10 nM in experiment [3] and greater than 10 nM in experiment [4].

For the molecule `CSCC[C@H](NC(=O)c1ccc(N)cc1)C(=O)Nc1nc(-c2cccc(-c3ccncc3)c2)cs1` [Compound A], the “inhibition of cell proliferation” value in experiment [5], in [6] and in experiment [7] was “inhibition of cell proliferation” throughout. Further, in experiment [8] (setting [11]), the “growth inhibition of uveal melanoma cells compared with clinical PKC and MEK inhibitors (FIG. 2A, 2B)” value is given as “comparable growth inhibition”. The “onset of inhibition compared with clinical PKC and MEK inhibitors” value in experiment [8] (92-1 or MP41) is given as “faster onset of inhibition”.

Consider `CC1(N)CCN(c2cccnc2NC(=O)c2nc(-c3ncccc3C(F)(F)F)cnc2N)CC1` [LXS196, reference compound], for which the “inhibition of cell proliferation” value in experiment [6], in experiment [7] and in experiment [9] was “inhibition of cell proliferation” each time. The “growth tolerance of PKCi-resistant cells relative to parental MP41 cell line (FIG. 7A)” value in [10] is on record as “could tolerate growth at higher concentrations”.
